Results: the supplement of paper PMC11451515

Experiments:
Assay in all cases: AUC of viability dose-response curve (% viability x log10 dose units); higher = less sensitive
Settings in all cases: 48 h
NOMO1 = test system: NOMO1
Procedure, shortened: (§1)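 Library compounds in DMSO were applied for 48 h at 37°C at 11 threefold doses (47 μM to 0.79 nM) to medium-adapted leukemia cells in 1536-well plates holding 500 or 1000 cells/well. Luminescence from CellTiter-Glo One was normalised plate by plate against DMSO and cell-free wells. Area under the curve came from trapezoidal integration of a log-logistic fit, after scaling curves that rose above full viability and discarding those that failed quality control. The fit had four parameters and used log10 doses.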

P12-Ichikawa = test system: P12-Ichikawa
Procedure, shortened: as §1

SEM cells = test system: SEM cells
Procedure, shortened: as §1

[1] = RPMI 5 mM glucose + 10% dialyzed FBS

| Structure (SMILES) | AUC of viability dose-response curve (NOMO1; HPLM + 10% dialyzed FBS) | AUC of viability dose-response curve (NOMO1; RPMI 5 mM glucose + 10% FBS) | AUC of viability dose-response curve (NOMO1; [1]) | AUC of viability dose-response curve (P12-Ichikawa; HPLM + 10% dialyzed FBS) | AUC of viability dose-response curve (P12-Ichikawa; RPMI 5 mM glucose + 10% FBS) | AUC of viability dose-response curve (P12-Ichikawa; [1]) | AUC of viability dose-response curve (SEM cells; HPLM + 10% dialyzed FBS) | AUC of viability dose-response curve (SEM cells; RPMI 5 mM glucose + 10% FBS) | AUC of viability dose-response curve (SEM cells; [1]) |
| --- | --- | --- | --- | --- | --- | --- | --- | --- | --- |
| CC(C)OC1=CC=C2C(=C1)O\C=C(/C2=O)C3=CC=CC=C3 | 447 | 435 | 471 | 467 | 465 | 465 | 461 | 460 | 442 |
| C[C@H]1COC/2=C1/C(=O)C(=O)C3=C4CCCC(C)(C)C4=CC=C23 | 447 | 469 | 448 | 468 | 466 | 473 | 434 | 363 | 400 |
| CC(C)(C)[C@H](NC(=O)c1ccc(N)c(Cl)c1)C(=O)N1CCC[C@H]1C(=O)N[C@H](C#N)CC(=O)O | 359 | 343 | 354 | 377 | 387 | 419 | 429 | 470 | 451 |
| OCCn1cc(-c2cnc3nnn(Cc4ccc5ncccc5c4)c3n2)cn1 | 440 | 471 | 456 | 457 | 455 | 459 | 430 | 389 | 430 |
| C[C@]12CCC\3=C\4CCC(=O)\C=C4CC[C@H]3[C@@H]1CC[C@@]2(O)CC#N | 436 | 468 | 454 | 473 | 466 | 468 | 437 | 445 | 451 |
| CN(C)C1=C(Br)C=C(C=C1)C\2NC3=C(\C4=C2C(=O)CC(C)(C)C4)C5=CC=CC=C5C=C3 (stereo unspecified) |  |  |  | 466 | 447 | 459 | 471 | 465 | 470 |
| COC1=CC=C2CN(C)CC[C@@]34\C=C/[C@H](O)C[C@@H]3OC1=C24 | 437 | 468 | 451 | 449 | 456 | 454 |  |  |  |
| COc1ncc(-c2ccc3c(Nc4cc(Oc5cc(F)cc(F)c5)cc(C(=O)O)c4)c([S+](=O)([O-])NC4CC4)cnc3c2)c(OC)n1 | 442 | 440 | 428 | 433 | 405 | 401 | 387 | 457 | 414 |
| C[C@H]1O[C@H](C[C@H](O)[C@@H]1O)O[C@H]2[C@@H](O)C[C@@H](O[C@@H]2C)O[C@H]3[C@@H](O)C[C@@H](O[C@@H]3C)O[C@H]4CC[C@@]5(C)[C@H](CC[C@@H]6[C@@H]5C[C@@H](O)[C@]7(C)[C@H](CC[C@]67O)C/8=C/C(=O)OC8)C4 | 226 | 280 | 253 | 208 | 242 | 227 | 200 | 250 | 239 |
| CN1CCN(C(=O)O[C@H]2c3nccnc3C(=O)N2c2ccc(Cl)cn2)CC1 | 451 | 467 | 464 | 468 | 461 | 470 | 453 | 450 | 445 |
| CNC(=O)Nc1ccc(-c2nc(N3CC4CCC(C3)O4)c3cnn(C4CCC5(CC4)OCCO5)c3n2)cc1 | 359 | 367 | 338 | 389 | 324 | 336 |  |  |  |
| Cc1ncc([N+](=O)[O-])n1CC(C)O (stereo unspecified) | 467 | 465 | 459 | 467 | 462 | 463 |  |  |  |
| Cc1nc(Nc2n[nH]c3c2CN(C(=O)N[C@H](CN(C)C)c2ccccc2)C3(C)C)c2sccc2n1 | 262 | 277 | 266 | 317 | 258 | 266 |  |  |  |
| O.O.CCN1CCN(C(=O)N[C@H](C(=O)N[C@H]2[C@@H]3SC\C(=C(/N3C2=O)C(O)=O)CSC4=NN=N[N]4C)C5=CC=C(O)C=C5)C(=O)C1=O |  |  |  |  |  |  | 422 | 425 | 413 |
| C[C@@H](O)[C@@H]1NC(=O)[C@H](CCCCN)NC(=O)[C@@H](Cc2c[nH]c3ccccc23)NC(=O)[C@H](Cc2ccccc2)NC(=O)[C@@H](NC(=O)[C@H](N)Cc2ccccc2)CSSC[C@@H](C(=O)N[C@H](CO)[C@@H](C)O)NC1=O |  |  |  | 438 | 395 | 391 | 422 | 404 | 380 |
| CC(C)Cc1ccc(C(C)C(=O)O)cc1 (stereo unspecified) |  |  |  | 442 | 408 | 410 | 371 | 396 | 425 |
| Nc1ncnc2c1nc(Cl)n2[C@@H]1O[C@H](CO)[C@@H](O)[C@H]1O |  |  |  | 454 | 463 | 452 | 412 | 419 | 406 |
| N=C1N[C@H]2[C@H](CS[C@H]2CCCCC(=O)O)N1 | 456 | 473 | 443 | 464 | 464 | 470 |  |  |  |
| C[C@@]1(C(=O)Nc2ccc(F)nc2)CCCN1c1nc(Nc2cc(C3CC3)[nH]n2)c2cccn2n1 | 369 | 417 | 392 | 374 | 380 | 393 |  |  |  |
| CN(C)CCN1C(=O)c2cccc3cc(N)cc(c23)C1=O | 424 | 427 | 435 | 437 | 418 | 431 |  |  |  |
